The structures appear in SMILES notation.

On to `CCOC(=O)CC(=O)Nc1cccc2ccccc12`, for which the melting point was in the range of 80 to 81 °C.

For `O=C(Nc1ccc(F)cn1)c1ccc(NCc2ccccc2)nc1`, the melting point fell in the range of 167 to 168 °C.

`Cc1nn(C)c(C)c1C(=O)NC/C=C\COc1cc(CN2CCCCC2)ccn1` showed a melting point of 75 to 77 °C.

For `CCSc1nc(NC(C)=O)ccc1[N+](=O)[O-]`, the melting point stood at 168 °C.

As to `O=c1nc(-c2cccc(CNS(=O)(=O)c3ccccc3)n2)sc2ccccc12`, the melting point was in the range of 207 to 208 °C.

`Nc1cc(SC(F)(F)F)cc(Br)c1N` displayed a melting point of 60 to 61 °C.

In the case of `O=C1CCCc2nc3ccccc3c(NCc3ccccc3C(F)(F)F)c21`, the melting point was 167 °C.

`COc1cc2c(=O)c(S(C)=O)cn(C)c2cc1F` (stereo unspecified) gave a melting point of 263 to 264 °C.

On to `Cc1[nH]c(=O)c2cc3nc(-c4ccncc4)[nH]c3cc2c1C`, for which the melting point is greater than 300 °C.

Consider `O=C(O)CC(CC(=O)O)c1cccc2oc3c(c12)CCCC3`, for which the melting point lay in the range of 176 to 181 °C.

In turn, `CC1(O)NC(=O)OC12CCN(Cc1ccccc1)CC2` (stereo unspecified) had a melting point of 162 to 164 °C.

`O=c1c2ccc(Cl)cc2cc2n1CCCS2` gave a melting point of 109 to 110 °C.

`CNC(=O)C1CN(CC(=O)Nc2c(Cl)cc(Cl)cc2Cl)CCN1` (stereo unspecified) showed a melting point of 169 °C.

`CCCCOc1c(C(=O)O)n(CC2CC2)c(=O)c2ccc(OCc3ccccc3)cc12` had a melting point of 178 to 179 °C.

`O=C1c2cc(O)ccc2CCN1Cc1cccnc1` gave a melting point of 136 to 137 °C.

The compound `CC(C)(C)C(=O)c1ccc(C(C)(C)C(=O)O)cc1` showed a melting point of 128 to 130 °C.

`N#CCCc1c(-c2ccccc2)c(=O)[nH]c2cc(Cl)ccc12` registered a melting point of 252 to 254 °C.

With `CCC(C)(C)Nc1c(-c2ccc(OC)cc2)c(=O)c1=O`, the melting point lay within 133 to 135 °C.

On to `CC(C#N)(c1ccc(Cl)cc1)c1ccc(N)cc1Cl` (stereo unspecified), for which the melting point is 135 °C.

In the case of `CNC(=O)CCCC1CCN(Cc2cnc3c(C)c(NC(=O)c4ccc(-c5ccc(F)cc5)cc4)ccc3c2)CC1`, the melting point lay in the range of 210 to 212 °C.

For `Cn1cc(C2=C(c3c4n(c5ccccc35)CC(O)CC4)C(=O)NC2=O)c2ccccc21` (stereo unspecified), the melting point lay within 252 to 255 °C.

On to `CCc1nc(CCc2ccc(NC(=O)/C=C/c3cnn(CC)c3-c3ccc(F)cc3)cc2)cs1`, for which the melting point was 190 to 191 °C.

Compound `CC1(C)OC(=S)Nc2ccc(-c3cc(F)cc(C(F)(F)F)c3)cc21` yielded a melting point of 204 to 206 °C.

Consider `O=C(Nc1nc2c(Oc3cc(-c4ccc(C(F)(F)F)cc4)ncn3)cccc2s1)C(O)c1ccccc1` (stereo unspecified), for which the melting point was in the range of 198 to 205 °C.

Take `CCCC(CCC)n1nnc2c(Nc3c(C)cc(C)cc3Br)nc(C)nc21`: the melting point lay in the range of 141 to 142 °C.

In turn, `O=[N+]([O-])c1ccc(-c2ccc(-c3ccc([N+](=O)[O-])cc3C(F)(F)F)o2)c(C(F)(F)F)c1` gave a melting point of 158 to 159 °C.

With `O=C(c1cccs1)c1cnn2c(-c3cccc(-c4nnn(Cc5ccccn5)n4)c3)ccnc12`, the melting point turned out to be 184 °C.

Compound `CS(=O)(=O)NNC(=O)c1nc(CS(=O)(=O)c2ccc(Cl)cc2)no1` displayed a melting point of 198 to 202 °C.

`C=CCOc1ccc(C(C)(C)C)cc1C(C(=O)O)c1ccccc1` (stereo unspecified): the melting point is 120 to 122 °C.

`Cc1c(NC(=O)c2ccc(-c3ccc(F)cc3)cc2)ccc2cc(C(c3ccccc3)N3CCCC3)cnc12` (stereo unspecified) gave a melting point of 192 to 195 °C.

With `COc1cc(-c2ccco2)c2oc(-c3ccc(OC)c(F)c3)nc2c1`, the melting point worked out at 155 °C.

As to `O=C(O)CCCCC(=O)NCc1ccc2c(c1)C(=O)N(C1CCC(=O)NC1=O)C2=O` (stereo unspecified), the melting point fell in the range of 144 to 146 °C.

With `COc1cccc2c1CN(c1c(F)cc3c(=O)c(C(=O)O)cn(-c4ccc(F)cc4F)c3c1F)C2`, the melting point lay within 262 to 271 °C.

On to `COCCn1cc2c(C3C(=O)Nc4ccc(Br)cc43)nc(NCCC3CCNCC3)nc2n1` (stereo unspecified), for which the melting point lay within 248 to 251 °C.

In turn, `Nc1cc(NC(=O)c2cc3cc(C(F)(F)F)ccc3n2Cc2cccc(F)c2)ccn1` showed a melting point of 225 to 226 °C.

In the case of `Cc1cc(-c2csc(-c3cccc(C(=O)O)c3)n2)c(C)s1`, the melting point was 155 to 156 °C.

Turning to `CN1C(=O)OC(C)(C)c2cc(-c3cc(F)cc(Br)c3)ccc21`, the melting point is 157 to 158 °C.

For `Nc1c2c(nc3cccc(Cl)c13)CCCC2`, the melting point lay in the range of 144 to 145 °C.

`O=C(c1cccnc1)c1cnc2c(cnn2Cc2ccco2)c1O`: the melting point was 152 to 153 °C.

As for `COc1ccc2c(c1)C(=O)N(c1ccc3ccn(C)c3c1)C2`, the melting point was in the range of 158 to 161 °C.

Regarding `CCOC(=O)CN1CCN(c2ccccc2[N+](=O)[O-])CC1`, the melting point stood at 122 °C.

For `O=C1c2cc(OCc3ccc4ccccc4n3)ccc2OCC1Oc1cccnc1` (stereo unspecified), the melting point fell in the range of 174 to 175 °C.

`Cc1ccc(-n2nc3c(c2O)-c2ccccc2CC3)nc1` came in with a melting point of 156 to 157 °C.

On to `CC(C)C1CC(O)OC(C(C)C2CC(=O)C3C4C(O)C(O)C5C(O)C(O)CCC5(C)C4CCC23C)C1` (stereo unspecified), for which the melting point was in the range of 239 to 241 °C.

Compound `O=C(O)C[C@H](NC(=O)CNC(=O)c1csc(NC(=O)NCc2ccccc2)n1)C(=O)Nc1ccccc1C(=O)O` yielded a melting point of 192 °C.

As for `Cc1cnoc1-c1ccc2c(c1)c1cc(-c3ccc(Cl)cc3Cl)c(=O)n(C)c1n2C`, the melting point fell in the range of 233 to 234 °C.

As to `O=C(O)C(=NOC1CCCC1)c1ccco1`, the melting point is 96.6 to 97.7 °C.

The compound `CCCCNC(=O)[C@@H](C[C@H](O)[C@H](CC1CCCCC1)NC(=O)[C@H](Cc1cscn1)NC(=O)[C@@H](CC(=O)N1CCOCC1)Cc1ccccc1)C(C)(C)O` returned a melting point of 92 to 95 °C.

As to `COc1c(N2CCNC(CF)C2)c(F)cc2c(=O)c(C(=O)O)cn([C@@H]3C[C@@H]3F)c12` (stereo partly specified), the melting point fell in the range of 153 to 156 °C.

In turn, `O=[N+]([O-])C1(Cc2ccccc2)CN(Cc2ccccc2)CCN(Cc2ccccc2)C1` returned a melting point of 66 to 69 °C.

Compound `COc1ccc(S(=O)(=O)N2CCc3cccc(-c4ccccn4)c32)cc1` returned a melting point of 195 to 197 °C.

Turning to `N=C(NS(=O)(=O)c1ccc(F)cc1)C1=NN(c2ccc(Cl)cc2)C(c2ccccc2)C1` (stereo unspecified), the melting point was in the range of 200 to 204 °C.

`O=C(NCc1ccc(F)cc1)c1ccnc(N2CCN(Cc3ccc(F)cc3F)C2=O)c1`: the melting point is 171 to 173 °C.

With `CC(=O)Nc1ccc2nc(CN(C(C)C)C(C)C)ccc2c1`, the melting point fell in the range of 147 to 148 °C.

As for `Cc1noc(C)c1-c1ccc(OC2SCC(O)C(O)C2O)c(F)c1` (stereo unspecified), the melting point came out at 140 °C.

The compound `C[C@H]1CN(c2c(F)cc3c(=O)c(C(=O)O)cn(CCF)c3c2Cl)C[C@H]1NC(=O)OC(C)(C)C` (relative stereo) gave a melting point of 229 to 231 °C.

For `O=C(NC1CCCCC1)NS(=O)(=O)c1ccc(CCNC(=O)N2Cc3ccccc3C2=O)cc1`, the melting point was 211 to 213 °C.

On to `O=C1c2ccccc2C(=O)N1c1cccc(S(F)(F)(F)(F)F)c1`, for which the melting point was 188 to 190 °C.

With `CCNC(C)Cc1ccc(O)cn1` (stereo unspecified), the melting point fell in the range of 75 to 79 °C.

Consider `CCOC(=O)c1ccc(NC(=O)C=Cc2ccc(OC)cc2)cc1`, for which the melting point is 163 to 166 °C.

For the compound `Brc1ccc2c(c1)Sc1ccccc1CC2`, the melting point was 69 to 71 °C.

(Values after a melting point compilation (Tetko et al.; mined from patent text by program, amines drawn as free bases though some values may be those of a salt).)
